Test results taken from patent publication US8809342B2, “Glucagon receptor modulators” (Pfizer Inc., priority 2010, dated 2014).

Biological target: T1, human glucagon receptor (Homo sapiens, UniProt P47871)
T1 construct: expressed in transfected cells; host or cells: CHO-K1 cells, stably transfected
Test: Glucagon cAMP assay (Cisbio cAMP detection)
Format: cell-based
Description: The Cisbio cAMP detection assay is used to determine the ability of punitive glucagon antagonist to block glucagon induced cAMP production. Potential glucagon antagonists are re-suspended and diluted in 100% DMSO. Prior to use in the Glucagon cAMP assay 100×DMSO compound stocks are diluted 20× with DMEM-F12 media (Invitrogen) containing either 0.1% or 4% BSA. 2 uls of 5× compound stocks are spotted into the appropriate wells of low binding white solid bottom 384 well plates (Corning). 2 uls of 5% DMSO or known glucagon antagonist are added to each plate to define the assay window. CHOK1 cells stably transfected with the human glucagon receptor are removed from culture flasks with cell dissociation buffer. Cell pellets are re-suspended, at a concentration of 8.3e^5 cells/ml in DMEM-F12 with or without 4% BSA and 200 uM IBMX. 6 uls of cell suspensions are added to the assay plates. Plates are incubated for 20 min at room temperature prior to the addition of a 100 pM challenge dose of glucagon. On a separate plate glucagon dose response curves are run to determine the EC50 of glucagon. After a 30 min room temperature incubation the reaction is terminated by the addition of lysis buffer containing the cAMP detection reagents. Plates are incubated for an additional 60 min at room temperature prior to being read on the Perkin Elmer fluorescent plate reader. Raw is converted to nM of cAMP produced based on a cAMP standard curve. Converted data is then analyzed using the Pfizer data analysis program. IC50 values are determined from the generated sigmoidal dose response curves. Kb values are the calculated using a modified Cheng-Prusoff equation.

T1 sequence (P47871 26-477): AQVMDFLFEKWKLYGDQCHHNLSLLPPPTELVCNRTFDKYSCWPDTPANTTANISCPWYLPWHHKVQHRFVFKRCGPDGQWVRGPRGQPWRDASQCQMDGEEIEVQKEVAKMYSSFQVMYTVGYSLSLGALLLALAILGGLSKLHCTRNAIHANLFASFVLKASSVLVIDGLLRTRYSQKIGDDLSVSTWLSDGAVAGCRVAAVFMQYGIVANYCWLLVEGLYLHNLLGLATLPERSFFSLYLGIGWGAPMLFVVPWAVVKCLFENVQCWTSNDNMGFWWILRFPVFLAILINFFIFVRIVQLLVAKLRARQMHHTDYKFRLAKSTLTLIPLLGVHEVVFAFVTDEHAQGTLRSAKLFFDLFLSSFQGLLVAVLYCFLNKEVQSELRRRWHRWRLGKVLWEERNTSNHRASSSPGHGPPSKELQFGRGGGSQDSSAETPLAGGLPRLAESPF

Row | Kb | SMILES
1 | 1900 nM | CC(C)CC(Nc1ccc(-c2ccc(C(F)(F)F)cc2)cc1)c1ccc(C(=O)Nc2nn[nH]n2)cn1 (racemic) [Example 2.13, (+/−)-6-(3-methyl-1-(4′-(trifluoromethyl)biphenyl-4-ylamino)butyl)-N-(2H-tetrazol-5-yl)nicotinamide]
2 | 1500 nM | CC(C)CC(Oc1ccc(-c2ccc(C(F)(F)F)cc2)cc1)c1ccc(C(=O)NCCC(=O)O)cn1 (racemic) [Example 3.1, (+/−)-3-(6-(3-methyl-1-(4′-(trifluoromethyl)biphenyl-4-Yloxy)butyl)nicotinamido)propanoic acid]
3 | 6000 nM | CC(Oc1ccc(-c2ccc(C(F)(F)F)cc2)cc1)c1ccc(C(=O)NCCC(=O)O)cn1 (racemic) [Example 3.3, (+/−)-3-(6-(1-(4′-(trifluoromethyl)biphenyl-4-yloxy)ethyl)nicotinamido) propanoic acid]
4 | 99 nM | CCCC(Nc1cnc(-c2ccc(C(F)(F)F)cc2)cn1)c1ccc(C(=O)NCCC(=O)O)cc1 (racemic) [Example 4.3, (±)-3-(4-(1-((5-(4-(trifluoromethyl)phenyl)pyrazin-2-yl)amino)butyl)benzamido)propanoic acid]
5 | 1000 nM | CCCC(Nc1ccc(C(=O)NCCC(=O)O)cn1)c1ccc(-c2ccc(C(F)(F)F)cc2)cc1 (single isomer, unassigned; isomer 1) [Example 1.8, 3-(6-(1-(4′-(trifluoromethyl)biphenyl-4-yl)butylamino)nicotinamido) propanoic acid, Isomer 1]
6 | 54 nM | Cc1cc(NC(CC(C)C)c2ccc(C(=O)NCCC(=O)O)cn2)cc(C)c1-c1ccc(C(F)(F)F)cc1 (single isomer, unassigned; isomer 1) [Example 2.2, 3-(6-(1-(2,6-dimethyl-4′-(trifluoromethyl)biphenyl-4-ylamino)-3-methylbutyl)nicotinamido)propanoic acid, Isomer 1]
7 | 760 nM | CC(C)CC(Nc1ccc(-c2ccc(C(F)(F)F)cc2)cc1)c1ccc(C(=O)NCCC(=O)O)cn1 (single isomer, unassigned; isomer 1) [Example 2.5, 3-(6-(3-methyl-1-(4′-(trifluoromethyl)biphenyl-4-ylamino)butyl)nicotinamido)propanoic acid, Isomer 1]
8 | 120 nM | CCCC(Nc1cnc(-c2ccc(C(F)(F)F)cc2)nc1)c1ccc(C(=O)NCCC(=O)O)cc1 (single isomer, unassigned; isomer 1) [Example 2.16, 3-(4-(1-(2-(4-(trifluoromethyl)phenyl)pyrimidin-5-ylamino)butyl)benzamido)propanoic acid, Isomer 1]
9 | 180 nM | Cc1cc(NC(CC(C)C)c2ccc(C(=O)NCCC(=O)O)cn2)cnc1-c1ccc(Cl)cc1 (single isomer, unassigned; isomer 1) [Example 4.16, 3-(6-(1-(6-(4-chlorophenyl)-5-methylpyridin-3-ylamino)-3-methylbutyl)nicotinamido)propanoic acid, Isomer 1]
10 | 130 nM | CCCC(Nc1ccc(C(=O)NCCC(=O)O)cn1)c1ccc(-c2ccc(C(F)(F)F)cc2)cc1 (single isomer, unassigned; isomer 2) [Example 1.9, 3-(6-(1-(4′-(trifluoromethyl)biphenyl-4-yl)butylamino)nicotinamido) propanoic acid, Isomer 2]

The next lines start with the molecule.

Row | SMILES | Kb
11 | CCCC(Nc1ccc(-c2ccc(C(F)(F)F)cc2)nn1)c1ccc(C(=O)NCCC(=O)O)cc1 (racemic) [Example 2.14, (+/−)-3-(4-(1-(6-(4-(trifluoromethyl)phenyl)pyridazin-3-ylamino)butyl)benzamido)propanoic acid] | 290 nM
12 | CCCC(Nc1cnc(-c2ccc(C(F)(F)F)cc2)nc1)c1ccc(C(=O)NCCC(=O)O)cc1 (racemic) [Example 2.15, (+/−)-3-(4-(1-(2-(4-(trifluoromethyl)phenyl)pyrimidin-5-ylamino)butyl)benzamido)propanoic acid] | 120 nM
13 | CC(C)CC(Oc1ccc(C(=O)NCCC(=O)O)cn1)c1ccc(-c2ccc(C(F)(F)F)cc2)cc1 (racemic) [Example 3.2, (+/−)-3-(6-(3-methyl-1-(4′-(trifluoromethyl)biphenyl-4-yl)butoxy)nicotinamido)propanoic acid] | 1900 nM
14 | O=C(O)CCNC(=O)c1ccc(NC(c2cnc(-c3ccc(C(F)(F)F)cc3)nc2)C2CCCCC2)nc1 (racemic) [Example 4.2, (+/−)-N-({6-[(cyclohexyl{2-[4-(trifluoromethyl)phenyl]pyrimidin-5-yl}methyl)amino]pyridin-3-yl}carbonyl)-beta-alanine] | 31 nM
15 | O=C(O)CCNC(=O)c1ccc(NC(c2ccc(-c3ccc(C(F)(F)F)cc3)cc2)C2CCOCC2)nc1 (racemic) [Example 4.7, (±)-3-(6-(((tetrahydro-2H-pyran-4-yl)(4′-(trifluoromethyl)-[1,1′-biphenyl]-4-yl)methyl)amino)nicotinamido)propanoic acid] | 220 nM
16 | CCCC(Nc1ccc(C(=O)NCCC(=O)O)cn1)c1ccc(-c2ccc(C(F)(F)F)cc2)c(C#N)c1 (racemic) [Example 4.8, (±)-3-(6-((1-(2-cyano-4′-(trifluoromethyl)-[1,1′-biphenyl]-4-yl)butyl)amino)nicotinamido)propanoic acid] | 200 nM
17 | O=C(O)CCNC(=O)c1ccc(NC(CCC(F)(F)F)c2ccc(-c3ccc(C(F)(F)F)cc3)cc2)nc1 (racemic) [Example 4.13, (+/−)-3-(6-(4,4,4-trifluoro-1-(4′-(trifluoromethyl)biphenyl-4-yl)butylamino)nicotinamido)propanoic acid] | 700 nM
18 | CC(C)CC(Nc1ccc(C(=O)NCCC(=O)O)cn1)c1ccc(-c2ccc(C(F)(F)F)cn2)cc1 (racemic) [Example 4.22, (+/−)-3-(6-(3-methyl-1-(4-(5-(trifluoromethyl)pyridin-2-yl)phenyl)butylamino)nicotinamido)propanoic acid] | 53 nM
19 | CC(C)CC(Nc1ccc(C(=O)N(C)CCC(=O)O)cn1)c1ccc(-c2ccc(C(F)(F)F)cc2)cc1 (single isomer, unassigned) [Example 4.6, 3-(N-methyl-6-((3-methyl-1-(4′-(trifluoromethyl)-[1,1′-biphenyl]-4-yl)butyl)amino)nicotinamido)propanoic acid (single enantiomer)] | 53 nM
20 | CC(C)C(Nc1ccc(C(=O)NCCC(=O)O)cn1)c1ccc(-c2ccc(C(F)(F)F)cc2)cc1 (single isomer, unassigned; (+)) [Example 1.14, (+)-3-(6-(2-methyl-1-(4′-(trifluoromethyl)biphenyl-4-yl)propylamino)nicotinamido)propanoic acid] | 990 nM
21 | CC(C)C(Nc1ccc(C(=O)NCCC(=O)O)cn1)c1ccc(-c2ccc(C(F)(F)F)cc2)cc1 (single isomer, unassigned; (-)) [Example 1.15, (−)-3-(6-(2-methyl-1-(4′-(trifluoromethyl)biphenyl-4-yl)propylamino)nicotinamido) propanoic acid] | 78 nM
22 | CC(C)CC(Nc1ncc(C(=O)NCCC(=O)O)cn1)c1ccc(-c2ccc(C(F)(F)F)cc2)cc1 (single isomer, unassigned; isomer 1) [Example 1.5, 3-(2-(3-methyl-1-(4′-(trifluoromethyl)biphenyl-4-yl)butylamino)pyrimidine-5-carboxamido)propanoic acid, Isomer 1] | 2900 nM
23 | CCC(Nc1ccc(C(=O)NCCC(=O)O)cn1)c1ccc(-c2ccc(C(F)(F)F)cc2)cc1 (single isomer, unassigned; isomer 1) [Example 1.12, 3-(6-(1-(4′-(trifluoromethyl)biphenyl-4-yl)propylamino)nicotinamido) propanoic acid, Isomer 1] | 560 nM
24 | CC(C)CC(Nc1cnc(C(=O)NCCC(=O)O)cn1)c1ccc(-c2ccc(C(F)(F)F)cc2)cc1 (single isomer, unassigned; isomer 1) [Example 1.17, 3-(5-(3-methyl-1-(4′-(trifluoromethyl)biphenyl-4-yl)butylamino)pyrazine-2-carboxamido)propanoic acid, Isomer 1] | 1100 nM
25 | CC(C)C[C@@H](Nc1ccc(C(=O)NCCC(=O)O)cn1)c1ccc(-c2ccc(C(F)(F)F)cc2)nc1 (single isomer, unassigned; isomer 1) [Example 4.20, 3-(6-(3-methyl-1-(6-(4-(trifluoromethyl)phenyl)pyridin-3-yl)butylamino)nicotinamido)propanoic acid, Isomer 1] | 61 nM
26 | CC(C)CC(Nc1ncc(C(=O)NCCC(=O)O)cn1)c1ccc(-c2ccc(C(F)(F)F)cc2)cc1 (single isomer, unassigned; isomer 2) [Example 1.6, 3-(2-(3-methyl-1-(4′-(trifluoromethyl)biphenyl-4-yl)butylamino)pyrimidine-5-carboxamido)propanoic acid, Isomer 2] | 210 nM
27 | CCC(Nc1ccc(C(=O)NCCC(=O)O)cn1)c1ccc(-c2ccc(C(F)(F)F)cc2)cc1 (single isomer, unassigned; isomer 2) [Example 1.13, 3-(6-(1-(4′-(trifluoromethyl)biphenyl-4-yl)propylamino)nicotinamido) propanoic acid, Isomer 2] | 150 nM
